Measured values published in PMC4060991, “The Human Orphan Nuclear Receptor Tailless (TLX, NR2E1) Is Druggable” (PLoS ONE, 2014).

What follows are compounds tested against TLX LBD (Homo sapiens, UniProt Q9Y466) (assay: Differential scanning fluorimetry (DSF) on purified TLX LBD). Conditions: compound 500 µM.
Type: binding
Parameters: cDNA fragments encoding human TLX LBD (a.a. 187–385) were cloned; His6 followed by TEV protease cleavage site (N); made in house; host or cells: E. coli BL21 (DE3) star
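Throughout, for hit in DSF screen (able to bind TLX LBD, Tm shift 0.9°C or more), Table S1: thermal unfolding followed by Sypro-Orange fluorescence (excitation 465 nm, emission 610 nm) in 384-well plates, Tm taken from the first derivative of the denaturation curve, duplicate samples.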
Method: Protein stability was assessed with DSF in absence or presence of test compounds in a LightCycler 480 II qRT-PCR Detection System (Roche) in 384-well format. Sypro-Orange dye (Life Technologies) was used to monitor fluorescence, with filters for fluorescence excitation at 465 nm and for fluorescence emission at 610 nm. […] Each compound was tested in duplicates. The melting temperature (Tm) for each sample was deduced by the ThermoQ Analytical software (HMRI) from the first derivative of the corresponding denaturation curve generated by the LightCycler 480 software. […] All DSF-based analyses were performed using freshly purified protein.

Chain of TLX LBD (Q9Y466 187-385): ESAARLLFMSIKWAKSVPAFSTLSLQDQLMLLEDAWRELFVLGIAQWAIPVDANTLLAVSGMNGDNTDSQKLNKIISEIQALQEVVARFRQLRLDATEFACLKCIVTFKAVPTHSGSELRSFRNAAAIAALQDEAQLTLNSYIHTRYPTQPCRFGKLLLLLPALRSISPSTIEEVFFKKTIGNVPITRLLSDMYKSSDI

Compound	hit in DSF screen (able to bind TLX LBD, Tm shift 0.9°C or more), Table S1
O=C([O][Hg][CH2]C1COC([CH2][Hg][O]C(=O)c2ccccc2)CO1)c1ccccc1 (stereo not drawn) [benzoyloxy-[[5-(benzoyloxymercuriomethyl)-1,4-dioxan-2-yl]methyl]mercury]	Hits from DSF
CN(C)c1ccc(C=CC(=O)[O-])cc1.CN(C)c1ccc(C=CC(=O)[O-])cc1.[Cu+2] [copper 3-(4-dimethylaminophenyl)prop-2-enoate]	Hits from DSF
Acetyloxymercury; Phenanthrene	Hits from DSF
Daptomycin [reference compound]	Hits from DSF
Kauroic acid	Hits from DSF

Each compound was assayed against ERβ LBD (Homo sapiens, UniProt Q92731) (assay: DSF on purified ERβ LBD). Conditions: compound 500 µM; unliganded Tm ∼51°C.
Chain of ERβ LBD (Q92731 261-530): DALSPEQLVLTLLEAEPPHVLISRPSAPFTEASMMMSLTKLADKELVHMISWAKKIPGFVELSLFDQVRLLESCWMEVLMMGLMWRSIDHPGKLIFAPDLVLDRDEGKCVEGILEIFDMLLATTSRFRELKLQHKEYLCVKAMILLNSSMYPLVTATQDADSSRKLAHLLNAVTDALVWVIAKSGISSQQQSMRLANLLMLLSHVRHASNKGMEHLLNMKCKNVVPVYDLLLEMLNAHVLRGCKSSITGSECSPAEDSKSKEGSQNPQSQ
Method: Protein stability was assessed with DSF in absence or presence of test compounds in a LightCycler 480 II qRT-PCR Detection System (Roche) in 384-well format. Sypro-Orange dye (Life Technologies) was used to monitor fluorescence, with filters for fluorescence excitation at 465 nm and for fluorescence emission at 610 nm. […] Tested sample mixtures were heated from 25°C to 96°C at a rate of 0.05°C/sec with 11 acquisitions per °C. Each compound was tested in duplicates. The melting temperature (Tm) for each sample was deduced by the ThermoQ Analytical software (HMRI) from the first derivative of the corresponding denaturation curve generated by the LightCycler 480 software. The same protocol was applied to investigate the stability of purified ERβ and LXRβ LBDs in presence or absence of the compounds. The optimal final concentrations for these experiments were 0.02 mg/mL for ERβ LBD and 0.20 mg/mL for LXRβ LBD. All DSF-based analyses were performed using freshly purified protein.

melting temperature shift of ERβ LBD	Compound
shifted upward	C[C@]12CC[C@@H]3c4ccc(O)cc4CC[C@H]3[C@@H]1CC[C@@H]2O [E2, estradiol]
